Results published in DBAASP.
Converted amounts (≈) assume the structure as drawn.

Legend:
Assay in all cases: ≥ marks a high value that may be exact or a test limit, other limits are often not marked, values filed in µg/mL are converted to µM
Staphylococcus aureus = tested on: Staphylococcus aureus
Bacillus cereus = tested on: Bacillus cereus
Escherichia coli = tested on: Escherichia coli
[1] = tested on: Pseudomonas aeruginosa ATCC 27853
[2] = tested on: Staphylococcus aureus ATCC 25923
[3] = tested on: Escherichia coli ATCC 25922
[4] = tested on: Acinetobacter baumannii ATCC 19606
[5] = tested on: Enterococcus faecalis ATCC 29212
[6] = tested on: Klebsiella pneumoniae ATCC 700603
[7] = tested on: Staphylococcus epidermidis ATCC 12228
[8] = tested on: Bacillus subtilis ATCC 23857
[9] = tested on: Salmonella enterica subsp. enterica serovar Typhimurium ATCC 14028
Klebsiella pneumoniae = tested on: Klebsiella pneumoniae
Salmonella typhimurium = tested on: Salmonella typhimurium
[10] = tested on: Pseudomonas aeruginosa ATCC 9027

Row | Compound | MIC (Bacillus cereus) | MIC (Escherichia coli) | MIC [2] | MIC [3] | MIC [6] | MIC [8] | also measured
1 | CC[C@H](C)[C@H](NC(=O)[C@H](CCCN=C(N)N)NC(=O)[C@H](CCCN=C(N)N)NC(=O)[C@H](Cc1ccccc1)NC(=O)[C@H](Cc1ccccc1)NC(=O)CN)C(=O)N[C@@H](CCCCN)C(=O)N[C@H](C(=O)N[C@@H](Cc1ccccc1)C(=O)N[C@@H](Cc1ccccc1)C(N)=O)[C@@H](C)O [GFFRRIKTFF] | – | – | 16 µM (≈ 21.1 µg/mL) | 32 µM (≈ 42.2 µg/mL) | 32 µM (≈ 42.2 µg/mL) | 16 µM (≈ 21.1 µg/mL) | MIC [1]: 8 µM (≈ 10.5 µg/mL); MIC [4]: 64 µM (≈ 84.3 µg/mL); MIC [5]: 64 µM (≈ 84.3 µg/mL); MIC [7]: 64 µM (≈ 84.3 µg/mL)
2 | CC[C@H](C)[C@H](NC(=O)[C@@H](NC(=O)[C@@H]1CCCN1C(=O)[C@@H](NC(=O)[C@@H]1CCCN1C(=O)[C@H](CCCCN)NC(=O)[C@H](CCCCN)NC(=O)[C@H](CO)NC(=O)CN)C(C)C)[C@@H](C)CC)C(=O)N[C@@H](Cc1ccc(O)cc1)C(=O)N[C@@H](C)C(=O)N[C@@H](CC(N)=O)C(=O)N[C@@H](CCCN=C(N)N)C(=O)N[C@@H](CCCN=C(N)N)C(=O)N[C@H](C(=O)NCC(=O)N[C@@H](CCCCN)C(=O)N[C@@H](C)C(=O)N[C@@H](CCC(N)=O)C(=O)N[C@@H](CCCN=C(N)N)C(=O)N[C@@H](CCSC)C(=O)O)[C@@H](C)O [GSKKPVPIIYANRRTGKAQRM] | – | – | – | – | – | – | MIC (Salmonella typhimurium): 20.8 µM (≈ 49.3 µg/mL)
3 | CC[C@H](C)[C@H](NC(=O)[C@H](CC(C)C)NC(=O)[C@H](CO)NC(=O)[C@H](C)NC(=O)[C@@H](NC(=O)[C@H](C)NC(=O)CNC(=O)[C@H](CCCCN)NC(=O)[C@H](Cc1ccccc1)NC(=O)[C@H](CCCCN)NC(=O)[C@@H](NC(=O)[C@H](C)NC(=O)[C@@H](NC(=O)[C@@H](NC(=O)[C@@H]1CCCN1C(=O)[C@H](CO)NC(=O)[C@H](CO)NC(=O)[C@@H](NC(=O)CN)C(C)C)[C@@H](C)CC)C(C)C)C(C)C)C(C)C)C(=O)N[C@@H](CCCCN)C(=O)O [GVSSPIVAVKFKGAVASLIK] | ≥ 130 µM | > 130 µM | – | – | – | – | –
4 | CC[C@H](C)[C@H](NC(=O)[C@H](CCCCN)NC(=O)[C@H](CCCCN)NC(=O)[C@H](C)NC(=O)[C@@H](NC(=O)[C@H](C)NC(=O)[C@H](C)NC(=O)[C@H](CC(C)C)NC(=O)[C@H](CCCCN)NC(=O)[C@H](CCCCN)NC(=O)[C@H](CC(C)C)NC(=O)[C@H](CC(N)=O)NC(=O)[C@@H](N)CC(C)C)C(C)C)C(=O)N[C@@H](CC(C)C)C(N)=O [LNLKKLAAVAKKIL] | – | – | 32 µM (≈ 48.7 µg/mL) | 8 µM (≈ 12.2 µg/mL) | 32 µM (≈ 48.7 µg/mL) | 4 µM (≈ 6.09 µg/mL) | MIC [10]: 4 µM (≈ 6.09 µg/mL)
5 | CC[C@H](C)[C@H](NC(=O)CNC(=O)[C@@H](NC(=O)[C@H](CCCCN)NC(=O)[C@H](C)NC(=O)[C@@H](NC(=O)[C@H](C)NC(=O)[C@H](CO)NC(=O)[C@H](CO)NC(=O)[C@H](Cc1ccccc1)NC(=O)[C@H](CC(C)C)NC(=O)[C@@H](NC(=O)[C@@H]1CCCN1C(=O)[C@@H](N)CC(C)C)C(C)C)[C@@H](C)CC)C(C)C)C(=O)N[C@@H](CCCCN)C(=O)N[C@@H](CC(C)C)C(=O)NCC(=O)N[C@@H](C)C(=O)N[C@@H](CCCCN)C(=O)N[C@H](C(=O)O)C(C)C [LPVLFSSAIAKVGIKLGAKV] | ≥ 127 µM | > 127 µM | – | – | – | – | –
6 | CC[C@H](C)[C@H](NC(=O)[C@H](CCCCN)NC(=O)CNC(=O)[C@@H](NC(=O)[C@H](C)NC(=O)[C@H](CO)NC(=O)[C@@H](N)CC(C)C)C(C)C)C(=O)N[C@@H](C)C(=O)N[C@@H](CO)C(=O)N[C@@H](CCCCN)C(=O)N[C@H](C(=O)N[C@H](C(=O)N1CCC[C@H]1C(=O)N[C@@H](CO)C(=O)N[C@H](C(=O)N[C@H](C(=O)NCC(=O)N[C@@H](C)C(=O)N[C@@H](Cc1ccccc1)C(=O)N[C@@H](CCCCN)C(=O)O)[C@@H](C)CC)C(C)C)C(C)C)C(C)C [LSAVGKIASKVVPSVIGAFK] | ≥ 130 µM | > 130 µM | – | – | – | – | –
7 | CC[C@H](C)[C@H](NC(=O)[C@H](CCSC)NC(=O)[C@H](CO)NC(=O)[C@H](Cc1ccccc1)NC(=O)[C@@H](NC(=O)[C@H](CO)NC(=O)[C@@H]1CCCN1C(=O)[C@@H](NC(=O)[C@@H](NC(=O)[C@H](CCCCN)NC(=O)[C@H](CO)NC(=O)[C@H](C)NC(=O)[C@H](CC(C)C)NC(=O)[C@H](CCCCN)NC(=O)CNC(=O)[C@@H](NC(=O)[C@@H](NC(=O)[C@@H]1CCCN1)C(C)C)[C@@H](C)CC)C(C)C)C(C)C)C(C)C)C(=O)N[C@@H](CCCCN)C(=O)N[C@@H](CCCN=C(N)N)C(=O)O [PVIGKLASKVVPSVFSMIKR] | ≥ 119 µM | > 119 µM | – | – | – | – | –
8 | CC[C@H](C)[C@H](NC(=O)[C@H](CO)NC(=O)[C@H](CS)NC(=O)[C@H](Cc1ccc(O)cc1)NC(=O)[C@@H](NC(=O)[C@H](C)NC(=O)[C@@H]1CCCN1C(=O)[C@H](Cc1ccccc1)NC(=O)[C@@H](NC(=O)[C@H](CCCCN)NC(=O)[C@H](CO)NC(=O)[C@H](C)NC(=O)[C@@H](NC(=O)[C@H](CCCN=C(N)N)NC(=O)CNC(=O)[C@H](CC(C)C)NC(=O)[C@H](C)NC(=O)[C@@H](N)CO)C(C)C)C(C)C)C(C)C)C(=O)N[C@H](C(=O)N[C@@H](CCCCN)C(=O)O)[C@@H](C)O [SALGRVASKVFPAVYCSITK] | ≥ 122 µM | > 122 µM | – | – | – | – | –
9 | CC(C)[C@H](NC(=O)[C@H](Cc1ccccc1)NC(=O)[C@@H](NC(=O)[C@@H](NC(=O)[C@@H](NC(=O)[C@H](CCCCN)NC(=O)[C@H](C)NC(=O)[C@@H](N)[C@@H](C)O)C(C)C)C(C)C)C(C)C)C(=O)N[C@@H](CO)C(=O)N[C@@H](Cc1ccccc1)C(=O)N[C@@H](CO)C(=O)N[C@@H](Cc1ccc(O)cc1)C(=O)N[C@H](C(=O)N[C@H](C(=O)N1CCC[C@H]1C(=O)N[C@@H](CCCCN)C(=O)N[C@@H](CCCCN)C(=O)N[C@@H](CCCN=C(N)N)C(=O)N[C@@H](C)C(=O)N[C@@H](CS)C(=O)O)C(C)C)C(C)C [TAKVVVFVSFSYVVPKKRAC] | ≥ 115 µM | > 115 µM | – | – | – | – | –

Second part, led by results:

Row | MIC (Bacillus cereus) | MIC (Escherichia coli) | MIC [2] | MIC [3] | MIC [6] | MIC [8] | Compound | also measured
10 | 14.5 µM (≈ 32 µg/mL) | 14.5 µM (≈ 32 µg/mL) | – | – | – | – | CC(C)C[C@H](NC(=O)[C@@H](N)Cc1ccccc1)C(=O)NCC(=O)N[C@H](C(=O)N[C@H](C(=O)N[C@@H](Cc1ccccc1)C(=O)N[C@@H](CCCCN)C(=O)N[C@@H](CCCCN)C(=O)N[C@@H](C)C(=O)N[C@@H](CO)C(=O)N[C@@H](CCCCN)C(=O)N[C@H](C(=O)N[C@@H](Cc1ccccc1)C(=O)N[C@@H](CCCCN)C(=O)N[C@@H](C)C(=O)N[C@H](C(=O)N[C@@H](Cc1ccccc1)C(=O)NCC(=O)N[C@@H](CCCCN)C(=O)N[C@H](C(=O)O)C(C)C)C(C)C)C(C)C)C(C)C)C(C)C [FLGVVFKKASKVFKAVFGKV] | MIC (Staphylococcus aureus): 116 µM (≈ 256 µg/mL)
11 | – | – | 32 µM (≈ 43.8 µg/mL) | 32 µM (≈ 43.8 µg/mL) | 64 µM (≈ 87.5 µg/mL) | ≥ 64 µM | CC[C@H](C)[C@H](NC(=O)CN)C(=O)N[C@@H](CCCN=C(N)N)C(=O)N[C@@H](Cc1c[nH]c2ccccc12)C(=O)N[C@@H](CCCCN)C(=O)N[C@@H](Cc1ccccc1)C(=O)N[C@@H](Cc1c[nH]c2ccccc12)C(=O)N[C@@H](CCCCN)C(=O)N[C@@H](Cc1ccccc1)C(=O)N[C@H](C(N)=O)[C@@H](C)O [GIRWKFWKFT] | MIC [1]: 16 µM (≈ 21.9 µg/mL); MIC [4]: 128 µM (≈ 175 µg/mL); MIC [5]: 128 µM (≈ 175 µg/mL); MIC [7]: 128 µM (≈ 175 µg/mL)
12 | – | – | 8 µM (≈ 11.5 µg/mL) | 8 µM (≈ 11.5 µg/mL) | 8 µM (≈ 11.5 µg/mL) | 8 µM (≈ 11.5 µg/mL) | CC(C)C[C@H](NC(=O)CN)C(=O)N[C@@H](Cc1c[nH]c2ccccc12)C(=O)N[C@@H](CCCCN)C(=O)N[C@@H](CCCN=C(N)N)C(=O)N[C@@H](Cc1c[nH]c2ccccc12)C(=O)N[C@@H](CCCCN)C(=O)N[C@@H](CCCCN)C(=O)N[C@@H](Cc1ccccc1)C(=O)N[C@@H](Cc1c[nH]c2ccccc12)C(N)=O [GLWKRWKKFW] | MIC [1]: 4 µM (≈ 5.74 µg/mL); MIC [4]: 16 µM (≈ 22.9 µg/mL); MIC [5]: 32 µM (≈ 45.9 µg/mL); MIC [7]: 16 µM (≈ 22.9 µg/mL)
13 | – | – | – | > 128 µM | – | – | CC[C@H](C)[C@H](NC(=O)[C@H](Cc1ccc(O)cc1)NC(=O)[C@@H](NC(=O)[C@H](CCCN=C(N)N)NC(=O)[C@H](CC(N)=O)NC(=O)[C@H](CC(N)=O)NC(=O)CN)C(C)C)C(=O)N1CCC[C@H]1C(=O)N[C@@H](CCC(N)=O)C(=O)N1CCC[C@H]1C(=O)N[C@@H](CCCN=C(N)N)C(=O)N1CCC[C@H]1C(=O)N[C@@H](Cc1cnc[nH]1)C(=O)N1CCC[C@H]1C(=O)N[C@@H](CCCN=C(N)N)C(=O)N[C@@H](CC(C)C)C(=O)O [GNNRVYIPQPRPHPRL] | MIC [9]: > 128 µM; MIC (Klebsiella pneumoniae): > 128 µM
14 | – | – | 4 µM (≈ 5.78 µg/mL) | 8 µM (≈ 11.6 µg/mL) | 8 µM (≈ 11.6 µg/mL) | 8 µM (≈ 11.6 µg/mL) | CC[C@H](C)[C@H](NC(=O)[C@H](CCCN=C(N)N)NC(=O)[C@H](CCCCN)NC(=O)[C@H](Cc1c[nH]c2ccccc12)NC(=O)[C@H](Cc1c[nH]c2ccccc12)NC(=O)CN)C(=O)N[C@@H](CCCCN)C(=O)N[C@H](C(=O)N[C@@H](Cc1c[nH]c2ccccc12)C(=O)N[C@@H](Cc1c[nH]c2ccccc12)C(N)=O)[C@@H](C)O [GWWKRIKTWW] | MIC [1]: 4 µM (≈ 5.78 µg/mL); MIC [4]: 8 µM (≈ 11.6 µg/mL); MIC [5]: 16 µM (≈ 23.1 µg/mL); MIC [7]: 8 µM (≈ 11.6 µg/mL)
